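All cell lines were grown in 96-well plates and treated with compound for 48 hours. The concentration for 50% growth inhibition is given as GI50.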 Active and inactive are the calls of the source. Cut-off read from the data, not from the text of the source: active = GI50 up to about 1.1 µM and inactive = higher.
Legend:
Assay in all cases: DTP human tumour cell line panel, 48 h
MCF7 = tested on: MCF7
SN12C = tested on: SN12C
Malme-3M = tested on: Malme-3M
OVCAR-8 = tested on: OVCAR-8
M14 = tested on: M14
SW-620 = tested on: SW-620
SNB-19 = tested on: SNB-19
A549 = tested on: A549
DU-145 = tested on: DU-145
786-0 = tested on: 786-0
UACC-62 = tested on: UACC-62
HCC 2998 = tested on: HCC 2998
UACC-257 = tested on: UACC-257
NCI-H23 = tested on: NCI-H23
MDA-MB-435 = tested on: MDA-MB-435
OVCAR-3 = tested on: OVCAR-3
UO-31 = tested on: UO-31
MOLT-4 = tested on: MOLT-4
NCI-H226 = tested on: NCI-H226

Cc1ccc(S[C@@H](C)[C@@](O)(CF)CN(Cc2ccccc2)C(=O)C(F)(F)F)cc1
GI50 (MCF7): 20.8 µM (inactive)
GI50 (SN12C): 18.4 µM (inactive)
GI50 (Malme-3M): 20.9 µM (inactive)
GI50 (OVCAR-8): 5.09 µM (inactive)
GI50 (M14): 17.1 µM (inactive)
GI50 (SW-620): 23.9 µM (inactive)
GI50 (SNB-19): 23.4 µM (inactive)
GI50 (A549): 14.8 µM (inactive)
GI50 (DU-145): 26.9 µM (inactive)
GI50 (786-0): 16.7 µM (inactive)
GI50 (UACC-62): 13.8 µM (inactive)
GI50 (HCC 2998): 18.3 µM (inactive)
GI50 (UACC-257): 20.9 µM (inactive)
GI50 (NCI-H23): 18.4 µM (inactive)
GI50 (MDA-MB-435): 19.6 µM (inactive)
GI50 (OVCAR-3): 13.7 µM (inactive)
GI50 (UO-31): 16.6 µM (inactive)

CCCCCCCC/C=C\CCCCCCC/C=C1\C[C@](/C=C/C(=O)OC)(CO)OC1=O
GI50 (MCF7): 3.28 µM (inactive)
GI50 (SN12C): 1.56 µM (inactive)
GI50 (Malme-3M): 1.4 µM (inactive)
GI50 (OVCAR-8): 2.59 µM (inactive)
GI50 (M14): 1.62 µM (inactive)
GI50 (SW-620): 1.78 µM (inactive)
GI50 (SNB-19): 4.54 µM (inactive)
GI50 (A549): 4.3 µM (inactive)
GI50 (DU-145): 10.8 µM (inactive)
GI50 (786-0): 1.33 µM (inactive)
GI50 (UACC-62): 6.85 µM (inactive)
GI50 (HCC 2998): 5.36 µM (inactive)
GI50 (UACC-257): 12.6 µM (inactive)
GI50 (NCI-H23): 3.71 µM (inactive)
GI50 (MOLT-4): 0.611 µM (active)
GI50 (MDA-MB-435): 1.25 µM (inactive)
GI50 (NCI-H226): 2.61 µM (inactive)
GI50 (OVCAR-3): 5.32 µM (inactive)
GI50 (UO-31): 1.15 µM (inactive)

C=CCn1c(-c2ccc([N+](=O)[O-])cc2)csc1=N
GI50 (MCF7): 25.4 µM (inactive)
GI50 (SN12C): > 100 µM (inactive)
GI50 (Malme-3M): 76.9 µM (inactive)
GI50 (OVCAR-8): 69.2 µM (inactive)
GI50 (M14): 56.9 µM (inactive)
GI50 (SW-620): 70 µM (inactive)
GI50 (SNB-19): > 100 µM (inactive)
GI50 (A549): 35.5 µM (inactive)
GI50 (DU-145): 43.8 µM (inactive)
GI50 (786-0): 74.6 µM (inactive)
GI50 (UACC-62): 37.7 µM (inactive)
GI50 (HCC 2998): > 100 µM (inactive)
GI50 (UACC-257): 13.1 µM (inactive)
GI50 (NCI-H23): 30 µM (inactive)
GI50 (MDA-MB-435): 43.5 µM (inactive)
GI50 (NCI-H226): 41.6 µM (inactive)
GI50 (OVCAR-3): 41.4 µM (inactive)
GI50 (UO-31): 37.2 µM (inactive)

CCCc1c(OC)c(=O)c2c(OC)cc(OC)c3c4c(OC)cc(OC)c5c(=O)c(OC)c(CCC)c(c1c23)c54
GI50 (MCF7): 17.1 µM (inactive)
GI50 (SN12C): 18.6 µM (inactive)
GI50 (OVCAR-8): 17.5 µM (inactive)
GI50 (M14): 16.9 µM (inactive)
GI50 (SW-620): 17.3 µM (inactive)
GI50 (SNB-19): 19.8 µM (inactive)
GI50 (A549): 19.4 µM (inactive)
GI50 (DU-145): 12.2 µM (inactive)
GI50 (786-0): 13.1 µM (inactive)
GI50 (UACC-62): 11.9 µM (inactive)
GI50 (HCC 2998): 20.1 µM (inactive)
GI50 (UACC-257): 20.7 µM (inactive)
GI50 (NCI-H23): 14.9 µM (inactive)
GI50 (MOLT-4): 7.91 µM (inactive)
GI50 (MDA-MB-435): 16 µM (inactive)
GI50 (NCI-H226): 16.2 µM (inactive)
GI50 (OVCAR-3): 14.8 µM (inactive)
GI50 (UO-31): 15.5 µM (inactive)

CC1(C)C2CCC1(C)C(N/C(Sc1ccccc1)=C(/C(Cl)=C(Cl)Cl)[N+](=O)[O-])C2 (stereo not given)
GI50 (MCF7): 11.2 µM (inactive)
GI50 (SN12C): 13.9 µM (inactive)
GI50 (Malme-3M): 15.1 µM (inactive)
GI50 (OVCAR-8): 13.8 µM (inactive)
GI50 (M14): 13.2 µM (inactive)
GI50 (SW-620): 11.7 µM (inactive)
GI50 (SNB-19): 18.1 µM (inactive)
GI50 (A549): 14.5 µM (inactive)
GI50 (DU-145): 17.7 µM (inactive)
GI50 (786-0): 14 µM (inactive)
GI50 (UACC-62): 9.14 µM (inactive)
GI50 (HCC 2998): 15.2 µM (inactive)
GI50 (UACC-257): 14.3 µM (inactive)
GI50 (NCI-H23): 12.3 µM (inactive)
GI50 (MOLT-4): 3.22 µM (inactive)
GI50 (MDA-MB-435): 10.4 µM (inactive)
GI50 (NCI-H226): 16.8 µM (inactive)
GI50 (OVCAR-3): 4.92 µM (inactive)
GI50 (UO-31): 13.2 µM (inactive)

Cc1ncc([N+](=O)[O-])n1CCNC(=O)Cn1ccnc1[N+](=O)[O-]
GI50 (MCF7): > 100 µM (inactive)
GI50 (SN12C): > 100 µM (inactive)
GI50 (Malme-3M): > 100 µM (inactive)
GI50 (OVCAR-8): > 100 µM (inactive)
GI50 (M14): > 100 µM (inactive)
GI50 (SW-620): > 100 µM (inactive)
GI50 (SNB-19): > 100 µM (inactive)
GI50 (A549): > 100 µM (inactive)
GI50 (DU-145): > 100 µM (inactive)
GI50 (786-0): > 100 µM (inactive)
GI50 (UACC-62): > 100 µM (inactive)
GI50 (HCC 2998): > 100 µM (inactive)
GI50 (UACC-257): > 100 µM (inactive)
GI50 (NCI-H23): > 100 µM (inactive)
GI50 (MOLT-4): > 100 µM (inactive)
GI50 (MDA-MB-435): > 100 µM (inactive)
GI50 (NCI-H226): > 100 µM (inactive)
GI50 (OVCAR-3): > 100 µM (inactive)
GI50 (UO-31): > 100 µM (inactive)

Reference: ChEMBL document CHEMBL1201862, “PubChem BioAssay data set” (2004)
